Assay [1] in a line: Binding affinity at cholinergic receptor.
In assay [2] the target is T1, Estrogen receptor (Homo sapiens, UniProt P03372).
T1 sequence (P03372 whole entry): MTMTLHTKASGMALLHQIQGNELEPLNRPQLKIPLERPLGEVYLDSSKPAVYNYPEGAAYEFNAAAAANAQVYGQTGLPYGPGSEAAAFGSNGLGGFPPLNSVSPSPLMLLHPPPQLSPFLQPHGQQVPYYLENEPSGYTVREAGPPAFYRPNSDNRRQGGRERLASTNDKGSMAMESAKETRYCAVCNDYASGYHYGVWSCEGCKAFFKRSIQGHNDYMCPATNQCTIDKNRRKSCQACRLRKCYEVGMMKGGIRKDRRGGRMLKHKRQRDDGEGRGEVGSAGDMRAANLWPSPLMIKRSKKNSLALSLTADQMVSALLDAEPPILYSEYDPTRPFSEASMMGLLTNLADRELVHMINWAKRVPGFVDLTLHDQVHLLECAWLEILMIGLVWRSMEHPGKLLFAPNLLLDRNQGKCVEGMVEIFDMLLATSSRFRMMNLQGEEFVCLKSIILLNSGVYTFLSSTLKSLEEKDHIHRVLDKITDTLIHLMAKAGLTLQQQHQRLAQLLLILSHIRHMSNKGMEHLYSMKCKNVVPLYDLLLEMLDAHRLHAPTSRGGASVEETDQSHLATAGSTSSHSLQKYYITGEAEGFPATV
The experiment in a line: Binding affinity at estrogen receptor.

For assay [3], the target named is T2, Histamine H3 receptor (Rattus norvegicus, UniProt Q9QYN8). The experiment in a line: Displacement of [3H]NAMH from histamine H3 receptor in rat cortex. Conditions: read-out: Ki. (In general: In a radioligand displacement assay an active substance lowers the binding of a labelled ligand.)
T2 sequence (Q9QYN8 whole entry): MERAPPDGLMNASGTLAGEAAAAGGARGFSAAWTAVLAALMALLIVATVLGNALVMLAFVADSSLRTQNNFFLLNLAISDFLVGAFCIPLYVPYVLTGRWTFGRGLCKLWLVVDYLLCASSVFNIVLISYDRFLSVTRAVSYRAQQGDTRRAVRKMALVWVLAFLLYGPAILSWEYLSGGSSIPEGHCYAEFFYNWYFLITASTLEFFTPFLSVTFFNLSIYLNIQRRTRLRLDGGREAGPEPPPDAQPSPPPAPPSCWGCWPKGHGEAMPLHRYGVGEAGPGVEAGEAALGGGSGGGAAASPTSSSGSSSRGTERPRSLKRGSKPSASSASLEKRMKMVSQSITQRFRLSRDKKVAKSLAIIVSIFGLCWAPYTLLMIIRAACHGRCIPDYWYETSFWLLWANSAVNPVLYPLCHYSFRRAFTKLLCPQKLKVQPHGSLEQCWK
Assay [4] concerns the target T3, Androgen receptor (Homo sapiens, UniProt P10275).
T3 sequence (P10275 whole entry): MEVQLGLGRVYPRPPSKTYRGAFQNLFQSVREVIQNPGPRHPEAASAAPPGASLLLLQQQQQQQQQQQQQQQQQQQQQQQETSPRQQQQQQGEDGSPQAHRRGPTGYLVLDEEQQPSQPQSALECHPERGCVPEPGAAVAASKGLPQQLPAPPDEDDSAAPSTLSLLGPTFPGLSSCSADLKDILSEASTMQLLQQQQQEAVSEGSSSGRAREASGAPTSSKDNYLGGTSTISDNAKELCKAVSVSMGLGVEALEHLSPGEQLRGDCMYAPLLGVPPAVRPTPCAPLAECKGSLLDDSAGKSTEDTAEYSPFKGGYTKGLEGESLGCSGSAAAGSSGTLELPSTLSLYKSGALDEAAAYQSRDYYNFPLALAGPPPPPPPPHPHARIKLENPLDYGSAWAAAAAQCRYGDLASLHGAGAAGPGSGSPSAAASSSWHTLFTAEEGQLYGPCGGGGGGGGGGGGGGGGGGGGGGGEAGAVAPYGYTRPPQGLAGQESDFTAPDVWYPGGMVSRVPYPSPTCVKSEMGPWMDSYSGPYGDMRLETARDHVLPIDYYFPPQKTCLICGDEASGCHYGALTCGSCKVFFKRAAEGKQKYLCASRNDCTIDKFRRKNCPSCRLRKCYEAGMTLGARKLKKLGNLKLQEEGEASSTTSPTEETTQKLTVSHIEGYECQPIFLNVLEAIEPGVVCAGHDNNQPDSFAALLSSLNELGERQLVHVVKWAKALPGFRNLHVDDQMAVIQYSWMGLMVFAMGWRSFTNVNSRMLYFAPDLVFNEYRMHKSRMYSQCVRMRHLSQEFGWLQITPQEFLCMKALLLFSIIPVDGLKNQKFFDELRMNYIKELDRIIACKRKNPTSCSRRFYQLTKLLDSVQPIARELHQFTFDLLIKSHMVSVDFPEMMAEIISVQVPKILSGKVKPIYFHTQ
As to the kind of experiment: Binding affinity at androgen receptor.

Assay [5] addresses T4, Histamine H3 receptor (Homo sapiens, UniProt Q9Y5N1). As to the kind of experiment: Antagonist activity at human full length histamine H3 receptor expressed in HEK293 cells assessed as inhibition of (R)-alpha-methylhistamine-induced intracellular calcium release by FLIPR. The format is functional, cell-based.
Assay [6] concerns the target Histamine H1 receptor (Homo sapiens, UniProt P35367). As to the kind of experiment: Displacement of [3H]mepyramine from human histamine H1 receptor. Conditions: read-out: Ki.
Assay [7] deals with T4, Histamine H3 receptor. As to the kind of experiment: Displacement of [3H]NAMH from human full length histamine H3 receptor expressed in rat C6 cells. The format is cell-based.
Assay [8] can be described thus: Binding affinity at dopamine receptor.
A short description of assay [9]: Binding affinity at serotonin receptor.
For assay [10], the system named is Mus musculus. As to the kind of experiment: Increase in learning and memory performance in mouse at 0.01 mg/kg, ip after 24 hrs by passive avoidance test. Further details: dose 0.01 mg/kg. The format is functional, organism-based.
Assay [11] deals with Histamine H4 receptor (Homo sapiens, UniProt Q9H3N8). The experiment in a line: Displacement of [3H]histamine from human histamine H4 receptor expressed in HEK cells. The format is cell-based, HEK293. To be noted: read-out: Ki.
Histamine H4 receptor, sequence (Q9H3N8 whole entry): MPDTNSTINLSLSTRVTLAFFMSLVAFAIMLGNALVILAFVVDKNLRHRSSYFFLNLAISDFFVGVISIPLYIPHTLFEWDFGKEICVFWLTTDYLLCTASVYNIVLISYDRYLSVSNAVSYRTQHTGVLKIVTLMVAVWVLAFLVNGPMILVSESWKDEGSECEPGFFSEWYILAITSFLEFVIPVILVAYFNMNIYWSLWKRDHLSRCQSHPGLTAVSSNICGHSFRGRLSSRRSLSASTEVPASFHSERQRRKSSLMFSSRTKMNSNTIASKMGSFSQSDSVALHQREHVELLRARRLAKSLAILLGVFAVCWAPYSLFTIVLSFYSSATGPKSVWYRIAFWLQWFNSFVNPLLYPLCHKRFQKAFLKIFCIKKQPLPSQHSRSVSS
Assay [12] concerns the target T2, Histamine H3 receptor. The experiment in a line: Displacement of [3H]NAMH from rat full length histamine H3 receptor expressed in rat C6 cells. The format is cell-based. To be noted: read-out: Ki.

1 molecule from ChEMBL document CHEMBL1157348, “The alkaloid conessine and analogues as potent histamine H3 receptor antagonists” (J Med Chem, 2008) can be followed below.

Activity calls are given as the source filed them. No cut-off for these calls is given here. Bounds are passed on as bounds.

T4 sequence (Q9Y5N1 whole entry): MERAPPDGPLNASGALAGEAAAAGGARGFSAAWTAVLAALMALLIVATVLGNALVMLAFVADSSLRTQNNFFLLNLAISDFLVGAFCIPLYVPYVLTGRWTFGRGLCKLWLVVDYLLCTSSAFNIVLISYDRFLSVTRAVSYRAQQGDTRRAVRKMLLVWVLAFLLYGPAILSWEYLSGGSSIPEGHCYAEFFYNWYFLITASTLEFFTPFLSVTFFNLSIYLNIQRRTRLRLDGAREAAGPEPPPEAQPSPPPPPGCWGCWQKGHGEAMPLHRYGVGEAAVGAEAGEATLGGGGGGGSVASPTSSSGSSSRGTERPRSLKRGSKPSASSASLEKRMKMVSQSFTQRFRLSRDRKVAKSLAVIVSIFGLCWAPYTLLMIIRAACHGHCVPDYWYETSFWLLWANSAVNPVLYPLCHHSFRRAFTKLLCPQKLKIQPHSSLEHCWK
Histamine H1 receptor, sequence (P35367 whole entry): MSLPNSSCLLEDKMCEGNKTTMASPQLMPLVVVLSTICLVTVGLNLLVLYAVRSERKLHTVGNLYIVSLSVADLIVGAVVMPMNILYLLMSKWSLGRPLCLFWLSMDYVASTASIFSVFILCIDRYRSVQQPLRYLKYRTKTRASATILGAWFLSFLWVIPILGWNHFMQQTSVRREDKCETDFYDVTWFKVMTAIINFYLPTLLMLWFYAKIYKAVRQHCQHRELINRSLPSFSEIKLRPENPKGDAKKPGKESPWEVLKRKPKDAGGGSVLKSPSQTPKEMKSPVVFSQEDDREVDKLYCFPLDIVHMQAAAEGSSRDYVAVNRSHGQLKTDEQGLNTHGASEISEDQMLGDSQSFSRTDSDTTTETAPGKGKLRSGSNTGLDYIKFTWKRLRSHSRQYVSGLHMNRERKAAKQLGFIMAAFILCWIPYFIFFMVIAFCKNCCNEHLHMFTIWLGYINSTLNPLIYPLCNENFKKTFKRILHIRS

As for `CN[C@@H](C(=O)N(C)[C@H]1CC[C@@]2(C)C(=CC[C@H]3[C@@H]4CC[C@@H]5[C@H](C)N(C)C[C@@]54CC[C@@H]32)C1)C(C)C`, the Ki (commonly the equilibrium dissociation constant of an inhibitor or competing ligand from its target) in [1] is over 10 µM; in [2] it was over 30 µM; in [3] it was 2.57 nM; in [4], over 30 µM; in assay [6], over 10 µM; in assay [7] it was 0.21 nM. For the same molecule, the Ki is over 10 µM in [8], over 10 µM in [9], over 10 µM in assay [11] and 2.57 nM in assay [12]. Moreover, the antagonist dissociation constant (Kb) (usually the affinity of an antagonist, worked out from how it opposes an agonist) in assay [5] is 4 nM. Also, the result in assay [10] was Active.
